From PubChem BioAssay (NCI)
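Tested at 5 concentrations; 48 h exposure; 96-well plates; endpoints linearly interpolated, else capped at highest concentration. TGI: total growth inhibition.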

Columns and labels:
Experiment in all cases: NCI anticancer screen, dose series, 48 h
786-0 renal = system: 786-0 renal
SF-295 CNS = system: SF-295 CNS
OVCAR-5 ovarian = system: OVCAR-5 ovarian
NCI-H23 lung = system: NCI-H23 lung
HCT-15 colon = system: HCT-15 colon
SW-620 colon = system: SW-620 colon
DLD-1 colon = system: DLD-1 colon
UACC-257 melanoma = system: UACC-257 melanoma
SNB-75 CNS = system: SNB-75 CNS
DMS 273 small cell lung = system: DMS 273 small cell lung
ACHN renal = system: ACHN renal
SK-OV-3 ovarian = system: SK-OV-3 ovarian
NCI/ADR-RES ovarian = system: NCI/ADR-RES ovarian
LOX IMVI melanoma = system: LOX IMVI melanoma
RPMI-8226 leukemia = system: RPMI-8226 leukemia
SK-MEL-2 melanoma = system: SK-MEL-2 melanoma
SK-MEL-5 melanoma = system: SK-MEL-5 melanoma
HOP-62 NSCLC = system: HOP-62 NSCLC
HCT-116 colon = system: HCT-116 colon
EKVX NSCLC = system: EKVX NSCLC
IGROV1 ovarian = system: IGROV1 ovarian
KM12 colon = system: KM12 colon
NCI-H226 lung = system: NCI-H226 lung
SNB-19 CNS = system: SNB-19 CNS
HL-60(TB) leukemia = system: HL-60(TB) leukemia
DMS 114 small cell lung = system: DMS 114 small cell lung
M19-MEL melanoma = system: M19-MEL melanoma
XF 498 CNS = system: XF 498 CNS
OVCAR-3 ovarian = system: OVCAR-3 ovarian
A498 renal = system: A498 renal
MDA-N = system: MDA-N
OVCAR-4 ovarian = system: OVCAR-4 ovarian
SNB-78 CNS = system: SNB-78 CNS
TK-10 renal = system: TK-10 renal
M14 melanoma = system: M14 melanoma
HOP-18 NSCLC = system: HOP-18 NSCLC
SF-539 CNS = system: SF-539 CNS
SR leukemia = system: SR leukemia
COLO 205 colon = system: COLO 205 colon
SK-MEL-28 melanoma = system: SK-MEL-28 melanoma
HCC-2998 colon = system: HCC-2998 colon
HT29 colon = system: HT29 colon
HOP-92 NSCLC = system: HOP-92 NSCLC
NCI-H460 lung = system: NCI-H460 lung
OVCAR-8 ovarian = system: OVCAR-8 ovarian
MCF7 breast = system: MCF7 breast
T-47D breast = system: T-47D breast
SF-268 CNS = system: SF-268 CNS
HS 578T breast = system: HS 578T breast
CCRF-CEM leukemia = system: CCRF-CEM leukemia
A549 NSCLC = system: A549 NSCLC
DU-145 prostate = system: DU-145 prostate
UO-31 renal = system: UO-31 renal
U251 CNS = system: U251 CNS
MALME-3M melanoma = system: MALME-3M melanoma
KM20L2 colon = system: KM20L2 colon
MDA-MB-231 breast = system: MDA-MB-231 breast
MDA-MB-435 = system: MDA-MB-435
PC-3 prostate = system: PC-3 prostate
MOLT-4 leukemia = system: MOLT-4 leukemia
RXF 393 renal = system: RXF 393 renal
SN12C renal = system: SN12C renal
CAKI-1 renal = system: CAKI-1 renal
BT-549 breast = system: BT-549 breast
UACC-62 melanoma = system: UACC-62 melanoma
NCI-H522 lung = system: NCI-H522 lung
K-562 leukemia = system: K-562 leukemia
LXFL 529 NSCLC = system: LXFL 529 NSCLC

## O=[N+]([O-])c1ccccc1S(=O)(=O)c1ccccc1[N+](=O)[O-]
786-0 renal
  TGI: > 100 µM
SF-295 CNS
  TGI: > 100 µM
OVCAR-5 ovarian
  TGI: > 100 µM
NCI-H23 lung
  TGI: > 100 µM
HCT-15 colon
  TGI: > 100 µM
SW-620 colon
  TGI: > 56.2 µM
DLD-1 colon
  TGI: > 100 µM
UACC-257 melanoma
  TGI: > 100 µM
SNB-75 CNS
  TGI: 43.1 µM
DMS 273 small cell lung
  TGI: > 100 µM
ACHN renal
  TGI: > 100 µM
SK-OV-3 ovarian
  TGI: > 100 µM
NCI/ADR-RES ovarian
  TGI: > 100 µM
LOX IMVI melanoma
  TGI: > 100 µM
RPMI-8226 leukemia
  TGI: > 100 µM
SK-MEL-2 melanoma
  TGI: > 100 µM
SK-MEL-5 melanoma
  TGI: > 56.2 µM
HOP-62 NSCLC
  TGI: 87 µM
HCT-116 colon
  TGI: > 100 µM
EKVX NSCLC
  TGI: > 56.2 µM
IGROV1 ovarian
  TGI: > 100 µM
KM12 colon
  TGI: > 100 µM
NCI-H226 lung
  TGI: > 100 µM
SNB-19 CNS
  TGI: > 97.7 µM
HL-60(TB) leukemia
  TGI: > 100 µM
DMS 114 small cell lung
  TGI: > 100 µM
M19-MEL melanoma
  TGI: > 100 µM
XF 498 CNS
  TGI: 72.4 µM
OVCAR-3 ovarian
  TGI: > 100 µM
A498 renal
  TGI: > 100 µM
MDA-N
  TGI: > 100 µM
OVCAR-4 ovarian
  TGI: > 100 µM
SNB-78 CNS
  TGI: > 100 µM
TK-10 renal
  TGI: > 56.2 µM
M14 melanoma
  TGI: > 100 µM
HOP-18 NSCLC
  TGI: > 100 µM
SF-539 CNS
  TGI: > 96.8 µM
SR leukemia
  TGI: > 100 µM
COLO 205 colon
  TGI: > 100 µM
SK-MEL-28 melanoma
  TGI: > 100 µM
HCC-2998 colon
  TGI: > 100 µM
HT29 colon
  TGI: > 100 µM
HOP-92 NSCLC
  TGI: 91.4 µM
NCI-H460 lung
  TGI: > 100 µM
OVCAR-8 ovarian
  TGI: > 56.2 µM
MCF7 breast
  TGI: > 100 µM
T-47D breast
  TGI: > 100 µM
SF-268 CNS
  TGI: > 89.3 µM
HS 578T breast
  TGI: > 100 µM
CCRF-CEM leukemia
  TGI: > 100 µM
A549 NSCLC
  TGI: > 56.2 µM
DU-145 prostate
  TGI: > 100 µM
UO-31 renal
  TGI: > 100 µM
U251 CNS
  TGI: 66.5 µM
MALME-3M melanoma
  TGI: > 100 µM
KM20L2 colon
  TGI: > 100 µM
MDA-MB-231 breast
  TGI: > 100 µM
MDA-MB-435
  TGI: > 100 µM
PC-3 prostate
  TGI: > 100 µM
MOLT-4 leukemia
  TGI: > 100 µM
RXF 393 renal
  TGI: 83.8 µM
SN12C renal
  TGI: > 100 µM
CAKI-1 renal
  TGI: > 100 µM
BT-549 breast
  TGI: > 100 µM
UACC-62 melanoma
  TGI: > 100 µM
NCI-H522 lung
  TGI: > 100 µM
K-562 leukemia
  TGI: > 100 µM
LXFL 529 NSCLC
  TGI: > 100 µM

## Cc1cc(=O)cc2sc3cc(Cl)ccc3nc1-2
786-0 renal
  TGI: 29 µM
SF-295 CNS
  TGI: 26.6 µM
OVCAR-5 ovarian
  TGI: 43.7 µM
NCI-H23 lung
  TGI: 42.8 µM
HCT-15 colon
  TGI: 16 µM
SW-620 colon
  TGI: 29.8 µM
DLD-1 colon
  TGI: > 100 µM
UACC-257 melanoma
  TGI: 69.9 µM
SNB-75 CNS
  TGI: 15.7 µM
DMS 273 small cell lung
  TGI: 24.6 µM
ACHN renal
  TGI: 30.6 µM
SK-OV-3 ovarian
  TGI: > 82.5 µM
LOX IMVI melanoma
  TGI: 24.4 µM
RPMI-8226 leukemia
  TGI: > 100 µM
SK-MEL-2 melanoma
  TGI: 23.5 µM
SK-MEL-5 melanoma
  TGI: 12.6 µM
HOP-62 NSCLC
  TGI: 29.7 µM
HCT-116 colon
  TGI: 28.7 µM
EKVX NSCLC
  TGI: 25 µM
IGROV1 ovarian
  TGI: 52 µM
KM12 colon
  TGI: 24.5 µM
NCI-H226 lung
  TGI: 65.6 µM
SNB-19 CNS
  TGI: 61.9 µM
HL-60(TB) leukemia
  TGI: 26.2 µM
M19-MEL melanoma
  TGI: 31.2 µM
XF 498 CNS
  TGI: 31.3 µM
OVCAR-3 ovarian
  TGI: 31.9 µM
A498 renal
  TGI: 45.4 µM
OVCAR-4 ovarian
  TGI: > 85.4 µM
SNB-78 CNS
  TGI: > 100 µM
TK-10 renal
  TGI: 53.8 µM
M14 melanoma
  TGI: 33.3 µM
HOP-18 NSCLC
  TGI: > 100 µM
SF-539 CNS
  TGI: 26.1 µM
SR leukemia
  TGI: 10.3 µM
COLO 205 colon
  TGI: 53.7 µM
SK-MEL-28 melanoma
  TGI: 69.2 µM
HCC-2998 colon
  TGI: 24.6 µM
HT29 colon
  TGI: 43.3 µM
HOP-92 NSCLC
  TGI: 57.7 µM
NCI-H460 lung
  TGI: 35.4 µM
OVCAR-8 ovarian
  TGI: 44.6 µM
SF-268 CNS
  TGI: 79.5 µM
CCRF-CEM leukemia
  TGI: 37.5 µM
A549 NSCLC
  TGI: 17.8 µM
UO-31 renal
  TGI: 63.1 µM
U251 CNS
  TGI: 33.9 µM
MALME-3M melanoma
  TGI: 39.7 µM
KM20L2 colon
  TGI: 30.1 µM
MOLT-4 leukemia
  TGI: > 60.8 µM
RXF 393 renal
  TGI: 30 µM
SN12C renal
  TGI: 50.3 µM
CAKI-1 renal
  TGI: 46.7 µM
UACC-62 melanoma
  TGI: 20.9 µM
NCI-H522 lung
  TGI: 7.65 µM
K-562 leukemia
  TGI: 20.6 µM
LXFL 529 NSCLC
  TGI: > 100 µM

## N#Cc1ccc(Nc2cnc3cc(N)ccc3n2)cc1
786-0 renal
  TGI: > 100 µM
SF-295 CNS
  TGI: > 100 µM
OVCAR-5 ovarian
  TGI: > 100 µM
NCI-H23 lung
  TGI: > 100 µM
HCT-15 colon
  TGI: > 100 µM
SW-620 colon
  TGI: > 100 µM
DLD-1 colon
  TGI: > 100 µM
UACC-257 melanoma
  TGI: > 100 µM
SNB-75 CNS
  TGI: > 100 µM
DMS 273 small cell lung
  TGI: > 100 µM
ACHN renal
  TGI: > 100 µM
SK-OV-3 ovarian
  TGI: > 100 µM
LOX IMVI melanoma
  TGI: > 100 µM
RPMI-8226 leukemia
  TGI: > 100 µM
SK-MEL-2 melanoma
  TGI: > 100 µM
SK-MEL-5 melanoma
  TGI: > 100 µM
HOP-62 NSCLC
  TGI: > 100 µM
HCT-116 colon
  TGI: > 100 µM
EKVX NSCLC
  TGI: > 100 µM
KM12 colon
  TGI: > 100 µM
NCI-H226 lung
  TGI: > 100 µM
SNB-19 CNS
  TGI: > 100 µM
HL-60(TB) leukemia
  TGI: > 100 µM
DMS 114 small cell lung
  TGI: > 100 µM
M19-MEL melanoma
  TGI: > 100 µM
XF 498 CNS
  TGI: > 100 µM
OVCAR-3 ovarian
  TGI: > 100 µM
OVCAR-4 ovarian
  TGI: > 100 µM
SNB-78 CNS
  TGI: > 100 µM
TK-10 renal
  TGI: > 100 µM
M14 melanoma
  TGI: > 100 µM
SF-539 CNS
  TGI: > 100 µM
SR leukemia
  TGI: > 100 µM
COLO 205 colon
  TGI: > 100 µM
SK-MEL-28 melanoma
  TGI: > 100 µM
HCC-2998 colon
  TGI: > 100 µM
HT29 colon
  TGI: > 100 µM
HOP-92 NSCLC
  TGI: > 100 µM
NCI-H460 lung
  TGI: > 100 µM
OVCAR-8 ovarian
  TGI: > 100 µM
SF-268 CNS
  TGI: > 100 µM
CCRF-CEM leukemia
  TGI: > 100 µM
A549 NSCLC
  TGI: > 100 µM
UO-31 renal
  TGI: > 100 µM
U251 CNS
  TGI: > 100 µM
MALME-3M melanoma
  TGI: > 100 µM
KM20L2 colon
  TGI: > 100 µM
MOLT-4 leukemia
  TGI: > 100 µM
RXF 393 renal
  TGI: > 100 µM
SN12C renal
  TGI: > 100 µM
CAKI-1 renal
  TGI: > 100 µM
UACC-62 melanoma
  TGI: > 100 µM
NCI-H522 lung
  TGI: > 100 µM
K-562 leukemia
  TGI: > 100 µM
LXFL 529 NSCLC
  TGI: > 100 µM
